Experimental findings from patent US20250034216A1, “STEREOSELECTIVE COVALENT LIGANDS FOR ONCOGENIC AND IMMUNOLOGICAL PROTEINS” (The Scripps Research Institute, priority 2021, published 2025) are described below.

Experiment in all cases: IA-DTB cysteine engagement
What all share (type): binding
Holding throughout (conditions): 22Rv1 cells, 20 μM probe, 1 h, relative to DMSO

In one assay the target is T1, ITPR2_C292 (Homo sapiens, UniProt Q14571).
T1 construct: endogenous in cells; host or cells: 22Rv1
Put shortly: (§1)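 In-situ probe treatment of cells; lysate 2 mg/mL, IA-DTB 1 h RT; MeOH/CHCl3 precipitation, DTT/iodoacetamide, trypsin; streptavidin enrichment; TMT labeling, high-pH fractionation. Ratio = TMT reporter intensity / mean DMSO channels, median-normalized.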

The target of a further assay is T2, WDR45B_C63 (Homo sapiens, UniProt Q5MNZ6).
T2 construct: endogenous in cells; host or cells: 22Rv1
Put shortly:
as §1

The target in another assay is T3, CLUH_C333 (Homo sapiens, UniProt O75153).
T3 construct: endogenous in cells; host or cells: 22Rv1
T3 sequence (O75153 1-1309): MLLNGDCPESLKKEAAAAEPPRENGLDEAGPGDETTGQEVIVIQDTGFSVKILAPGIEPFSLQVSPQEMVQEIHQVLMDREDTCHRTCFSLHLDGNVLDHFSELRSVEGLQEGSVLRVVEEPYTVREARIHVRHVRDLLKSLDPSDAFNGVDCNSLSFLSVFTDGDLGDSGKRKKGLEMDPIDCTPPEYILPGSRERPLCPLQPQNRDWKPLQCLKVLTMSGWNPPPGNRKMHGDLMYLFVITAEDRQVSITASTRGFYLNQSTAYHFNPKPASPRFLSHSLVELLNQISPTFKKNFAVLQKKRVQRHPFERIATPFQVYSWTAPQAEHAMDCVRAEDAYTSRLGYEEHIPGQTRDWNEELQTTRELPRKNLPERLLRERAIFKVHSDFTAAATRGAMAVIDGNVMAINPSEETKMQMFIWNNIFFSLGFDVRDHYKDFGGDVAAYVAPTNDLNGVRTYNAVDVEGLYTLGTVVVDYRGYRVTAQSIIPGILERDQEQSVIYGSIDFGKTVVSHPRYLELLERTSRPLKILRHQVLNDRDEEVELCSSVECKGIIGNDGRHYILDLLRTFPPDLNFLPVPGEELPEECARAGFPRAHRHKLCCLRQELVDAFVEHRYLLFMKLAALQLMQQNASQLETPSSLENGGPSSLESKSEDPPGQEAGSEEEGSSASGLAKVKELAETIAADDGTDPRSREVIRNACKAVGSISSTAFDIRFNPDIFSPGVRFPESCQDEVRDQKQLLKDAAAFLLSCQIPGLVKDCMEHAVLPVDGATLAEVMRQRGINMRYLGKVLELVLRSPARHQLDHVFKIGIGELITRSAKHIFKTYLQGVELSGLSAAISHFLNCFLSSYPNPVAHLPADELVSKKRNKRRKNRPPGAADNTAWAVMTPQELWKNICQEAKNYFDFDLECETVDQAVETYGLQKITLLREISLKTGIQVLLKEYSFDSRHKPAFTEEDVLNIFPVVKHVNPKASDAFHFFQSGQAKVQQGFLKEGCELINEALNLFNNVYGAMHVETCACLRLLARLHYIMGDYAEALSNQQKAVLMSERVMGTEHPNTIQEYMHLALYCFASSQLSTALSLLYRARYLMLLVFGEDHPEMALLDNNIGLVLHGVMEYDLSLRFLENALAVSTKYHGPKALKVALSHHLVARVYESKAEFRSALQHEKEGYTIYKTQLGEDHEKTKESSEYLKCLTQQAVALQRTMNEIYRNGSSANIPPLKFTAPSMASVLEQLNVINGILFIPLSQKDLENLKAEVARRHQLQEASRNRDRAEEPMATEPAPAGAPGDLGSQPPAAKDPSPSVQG
In a few lines: as §1

T2 sequence (Q5MNZ6 whole entry): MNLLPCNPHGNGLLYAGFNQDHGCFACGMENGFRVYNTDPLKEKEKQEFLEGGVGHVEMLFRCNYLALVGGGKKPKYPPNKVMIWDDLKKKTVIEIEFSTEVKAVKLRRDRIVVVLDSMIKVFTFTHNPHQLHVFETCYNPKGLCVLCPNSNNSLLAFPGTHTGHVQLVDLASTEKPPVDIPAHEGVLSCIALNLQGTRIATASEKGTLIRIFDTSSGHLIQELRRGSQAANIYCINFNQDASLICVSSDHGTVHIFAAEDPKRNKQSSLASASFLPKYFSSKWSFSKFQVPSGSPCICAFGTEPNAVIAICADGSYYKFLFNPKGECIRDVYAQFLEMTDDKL
T1 sequence (Q14571 whole entry): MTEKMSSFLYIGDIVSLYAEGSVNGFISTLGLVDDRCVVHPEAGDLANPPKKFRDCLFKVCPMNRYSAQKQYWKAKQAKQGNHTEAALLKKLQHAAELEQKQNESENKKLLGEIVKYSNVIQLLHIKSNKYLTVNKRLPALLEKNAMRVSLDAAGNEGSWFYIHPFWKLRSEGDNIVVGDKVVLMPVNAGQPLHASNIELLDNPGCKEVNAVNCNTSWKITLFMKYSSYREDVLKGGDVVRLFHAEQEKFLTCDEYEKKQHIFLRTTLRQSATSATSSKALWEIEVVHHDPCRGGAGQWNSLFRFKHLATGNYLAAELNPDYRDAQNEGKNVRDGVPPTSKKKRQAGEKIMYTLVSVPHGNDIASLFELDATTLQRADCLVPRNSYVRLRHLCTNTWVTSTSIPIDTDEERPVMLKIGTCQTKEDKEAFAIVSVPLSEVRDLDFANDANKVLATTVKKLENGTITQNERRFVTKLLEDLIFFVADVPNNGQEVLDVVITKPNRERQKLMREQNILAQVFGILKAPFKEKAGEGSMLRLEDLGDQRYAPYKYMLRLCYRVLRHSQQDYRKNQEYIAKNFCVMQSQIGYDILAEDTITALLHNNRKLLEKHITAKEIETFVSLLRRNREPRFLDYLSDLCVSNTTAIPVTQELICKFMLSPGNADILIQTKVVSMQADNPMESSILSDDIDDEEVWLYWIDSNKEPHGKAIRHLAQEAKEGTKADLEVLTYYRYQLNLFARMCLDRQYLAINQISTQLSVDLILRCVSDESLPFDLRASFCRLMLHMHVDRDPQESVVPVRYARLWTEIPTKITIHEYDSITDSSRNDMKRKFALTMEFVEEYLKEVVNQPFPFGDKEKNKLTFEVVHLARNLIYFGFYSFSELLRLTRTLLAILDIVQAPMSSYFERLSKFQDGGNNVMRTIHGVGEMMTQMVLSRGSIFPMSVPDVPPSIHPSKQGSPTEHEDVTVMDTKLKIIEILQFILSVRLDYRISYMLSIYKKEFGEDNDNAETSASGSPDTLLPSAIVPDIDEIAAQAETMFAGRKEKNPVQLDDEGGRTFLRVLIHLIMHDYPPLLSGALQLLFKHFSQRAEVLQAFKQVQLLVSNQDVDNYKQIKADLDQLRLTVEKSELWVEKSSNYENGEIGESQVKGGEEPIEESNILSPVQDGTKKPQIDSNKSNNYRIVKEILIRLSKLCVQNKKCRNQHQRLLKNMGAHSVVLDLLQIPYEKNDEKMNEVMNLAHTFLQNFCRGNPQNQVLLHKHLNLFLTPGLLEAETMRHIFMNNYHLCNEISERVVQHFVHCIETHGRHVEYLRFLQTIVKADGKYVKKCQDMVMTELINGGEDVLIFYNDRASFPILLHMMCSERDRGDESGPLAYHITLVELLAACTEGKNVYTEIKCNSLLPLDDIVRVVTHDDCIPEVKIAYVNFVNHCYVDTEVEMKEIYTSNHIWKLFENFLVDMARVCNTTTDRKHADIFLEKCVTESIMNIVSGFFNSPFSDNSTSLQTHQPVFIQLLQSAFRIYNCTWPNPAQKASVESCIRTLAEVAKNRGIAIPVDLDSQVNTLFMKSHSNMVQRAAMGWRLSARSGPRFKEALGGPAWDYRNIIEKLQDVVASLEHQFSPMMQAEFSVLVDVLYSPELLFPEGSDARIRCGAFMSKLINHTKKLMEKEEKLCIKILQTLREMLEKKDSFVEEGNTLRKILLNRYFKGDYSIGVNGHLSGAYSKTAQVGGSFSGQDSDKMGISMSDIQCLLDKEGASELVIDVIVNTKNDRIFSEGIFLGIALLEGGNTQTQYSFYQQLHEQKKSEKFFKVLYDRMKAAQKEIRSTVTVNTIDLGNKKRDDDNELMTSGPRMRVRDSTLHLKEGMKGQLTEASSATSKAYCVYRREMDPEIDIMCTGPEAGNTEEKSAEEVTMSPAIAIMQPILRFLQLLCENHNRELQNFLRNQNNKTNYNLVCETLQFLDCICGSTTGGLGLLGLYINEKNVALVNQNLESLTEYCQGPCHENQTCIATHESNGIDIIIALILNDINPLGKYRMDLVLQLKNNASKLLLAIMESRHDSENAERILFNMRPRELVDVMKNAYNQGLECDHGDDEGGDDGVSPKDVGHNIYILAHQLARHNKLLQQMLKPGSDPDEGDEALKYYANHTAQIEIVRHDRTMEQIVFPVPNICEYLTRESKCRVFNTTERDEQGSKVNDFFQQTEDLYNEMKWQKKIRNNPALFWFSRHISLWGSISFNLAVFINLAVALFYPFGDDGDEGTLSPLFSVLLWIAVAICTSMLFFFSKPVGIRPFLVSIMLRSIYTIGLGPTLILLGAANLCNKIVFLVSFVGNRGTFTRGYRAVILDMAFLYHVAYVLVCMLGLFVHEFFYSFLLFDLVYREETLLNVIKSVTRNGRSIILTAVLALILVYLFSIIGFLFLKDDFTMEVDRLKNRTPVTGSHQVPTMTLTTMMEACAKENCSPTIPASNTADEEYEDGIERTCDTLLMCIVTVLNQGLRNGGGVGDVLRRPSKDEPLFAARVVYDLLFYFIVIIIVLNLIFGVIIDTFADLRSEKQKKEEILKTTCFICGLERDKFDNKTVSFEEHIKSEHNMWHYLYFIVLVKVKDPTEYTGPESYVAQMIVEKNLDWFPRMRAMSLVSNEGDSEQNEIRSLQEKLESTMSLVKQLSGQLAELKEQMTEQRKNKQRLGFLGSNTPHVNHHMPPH

Turning to `C=CC(=O)N1C[C@H](c2ccc(Br)cc2)[C@H]1C(=O)Nc1cccc2cccnc12` [MY-3A, (2S,3S)-1-acryloyl-3-(4-bromophenyl)-N-(quinolin-8-yl)azetidine-2-carboxamide], the “% engagement ITPR2_C292” value at ITPR2_C292 was found to be 48.5%. In addition, the “% engagement WDR45B_C63” value at WDR45B_C63 is reported as 0%. Besides, the “% engagement CLUH_C333” value on CLUH_C333 came to 0.5%.
For `C=CC(=O)N1C[C@@H](c2ccc(Br)cc2)[C@H]1C(=O)Nc1cccc2cccnc12` [MY-1A, (2S,3R)-1-acryloyl-3-(4-bromophenyl)-N-(quinolin-8-yl)azetidine-2-carboxamide], the “% engagement ITPR2_C292” value on ITPR2_C292 turned out to be 24.5%. Further, the “% engagement WDR45B_C63” value at WDR45B_C63 is reported as 52.25%. At CLUH_C333, the “% engagement CLUH_C333” value is 81%.
For `C=CC(=O)N1C[C@H](c2ccc(Br)cc2)[C@@H]1C(=O)Nc1cccc2cccnc12` [MY-1B, (2R,3S)-1-acryloyl-3-(4-bromophenyl)-N-(quinolin-8-yl)azetidine-2-carboxamide], on ITPR2_C292, the “% engagement ITPR2_C292” value is listed as 70%. Further, on WDR45B_C63, the “% engagement WDR45B_C63” value is recorded as 7.25%. Also, on CLUH_C333, the “% engagement CLUH_C333” value came to 13%.
In the same order, the values of `C=CC(=O)N1C[C@H](c2ccc(Br)cc2)[C@H]1C(=O)Nc1cccc2cccnc12` [MY-3B, (2S,3S)-1-acryloyl-3-(4-bromophenyl)-N-(quinolin-8-yl)azetidine-2-carboxamide] are 50.5%, 86.75% and −4.5%.
